Reference: the NIST ThermoML archive (doi:10.1021/je060163o)
± gives the expanded uncertainty stated by the source.

Legend:
[1] = Liquid; for vapor or sublimation pressure: Twin ebulliometer
[2] = refractive index (Na D-line) (dimensionless); details: 298.15 K; 101.33 kPa; Liquid; Standard Abbe refractometry

Compound	vapor or sublimation pressure ([1]; 292.33 K)	vapor or sublimation pressure ([1]; 303.83 K)	vapor or sublimation pressure ([1]; 311.14 K)	vapor or sublimation pressure ([1]; 317.9 K)	vapor or sublimation pressure ([1]; 323.09 K)	vapor or sublimation pressure ([1]; 326.8 K)	vapor or sublimation pressure ([1]; 330.56 K)	vapor or sublimation pressure ([1]; 333.94 K)	vapor or sublimation pressure ([1]; 337.18 K)	vapor or sublimation pressure ([1]; 339.97 K)	vapor or sublimation pressure ([1]; 342.3 K)	refractive index [2]	mass density ([1]; 298.15 K, 101.33 kPa)
CCO [ethanol]	5.59 ± 0.15 kPa	10.86 ± 0.15 kPa	16.15 ± 0.16 kPa	22.84 ± 0.17 kPa	29.41 ± 0.18 kPa	35.11 ± 0.19 kPa	41.76 ± 0.21 kPa	48.61 ± 0.22 kPa	56.06 ± 0.24 kPa	63.2 ± 0.26 kPa	69.73 ± 0.27 kPa	1.3596 ± 0.0004	–
CO [methanol]	–	–	–	–	–	–	–	–	–	–	–	1.3266 ± 0.0004	786.59 ± 0.62 kg/m3
